Measured values as given in patent US20140087970A1, “SERINE BIOSYNTHESIS PATHWAY INHIBITION FOR TREATMENT OF CANCER” (Whitehead Institute for Biomedical Research, priority 2011, published 2014).

System: cell lines with elevated PHGDH expression (BT-20, MDA-MB-468, HCC70, Hs578T and MT3)
Experiment: Cell proliferation assay after lentiviral shRNA infection
Format: cell-based, human
Conditions: media supplemented during PHGDH knockdown
Experimental: For PHGDH or PSPH knockdown experiments, 10,000-20,000 MDA-MB-468, BT-20, HCC70, MCF-7, or MDA-MB-23 I cells were infected with shRNA-expressing lentiviruses of known titers at a multiplicity of infection of 2.5 to 5. Cells were cultured in 12-well plates and infected via a 30-minute spin at 2,250 RPM in a Beckman Coulter Allegra X-12R centrifuge with an SX4750 rotor and uPlate Carrier attachment followed by an overnight incubation in media containing polybrene. Eight days after infection the number of cells was determined using a Coulter Counter (Beckman) and used to calculate relative cell proliferation. Where indicated, standard RPMI media was supplemented with serine to concentrations 5-fold that of the serine already in the media. Where indicated, supplementation occurred at one and four days after lentiviral infection. For serine depletion experiments, cells were plated out as described above and the following day the standard culture medium was replaced with medium lacking serine or reconstituted with 1× serine. Dialyzed serum (3 kDa MWCO) was utilized in serine depletion experiments except in the case of MCF-10A cells, where standard 5% serum was utilized.

## COC(=O)C(N)CO (centres unmarked) [methyl-serine-ester]
  effect of media supplementation on the PHGDH knockdown proliferation phenotype: did not blunt the effects of the PHGDH knockdown

## N[C@@H](CO)C(=O)O [serine]
  effect of media supplementation on the PHGDH knockdown proliferation phenotype: did not blunt the effects of the PHGDH knockdown
